Here are results for 1 molecule from patent US20110046107A1, “SULFONYL-SUBSTITUTED CARBAPENEM COMPOUNDS” (priority 2007, published 2011).

Converted amounts (≈) assume the structure as drawn.

Series [1] deals with penicillin-resistant streptococcus pneumoniae (PRSP). Put plainly: In vitro antibacterial activity, agar dilution method (clinical isolates). The format is cell-based. Conditions: clinically isolated strains, Gram-positive, read-out: MIC90 S. pneumoniae PRSP. The source says:
(§1) Bacterial strains for test: All the bacterial strains are clinical isolates and purchased from public organizations. methicillin-sensitive staphylococcus aureus (MS SA), methicillin-resistant staphylococcus aureus (MRSA), methicillin-sensitive staphylococcus epidermidis (MSSE), methicillin-resistant staphylococcus epidermidis (MRSE), streptococcus pyogenes, penicillin-sensitive streptococcus pneumoniae (PSSP), penicillin-resistant streptococcus pneumoniae (PRSP), Escherichia coli, Citrobacter freundii, Enterobacter cloacae, Hemophilus influenza, Klebsiella pneumonia (producing ESBL), Morganella morganii, Proteus mirabilis, Serratia marcescens, and Pseudomonas aeruginosa.
(§2) Drugs to be tested: compounds of the invention prepared in the examples; the chemical names, structural formulae, preparation materials, and preparation methods are provided in the preparation examples of the compounds;
(§3) Meropenem (Meropenem for injection), Ertapenem (Ertapenem for injection), and Doripenem (Doripenem for injection) commercially available
(§4) Experimental method: the agar dilution method, by reference to Methodology of Pharmacological Experiment (XU Shuyun et al, published by the Peoples Medical Publishing House, 1st Edition, August, 1982; 3rd Edition, 5th printing, January 2002, p 1659-1660).
(Agar dilution tests growth on a series of plates holding different concentrations.)

For series [2], the system named is methicillin-resistant staphylococcus aureus (MRSA). The description is as above. The conditions noted are these: clinically isolated strains, Gram-positive, read-out: MIC90 S. aureus MRSA. It counts as cell-based.
Text: as §1, §2, §3, §4

In a further series the test system is Morganella morganii. The description is as above. The format is cell-based. Conditions: clinically isolated strains, Gram-negative.
Text: as §1, §2, §3, §4

The subject of a further series is Proteus mirabilis. Described as above. It counts as cell-based. The conditions noted are these: clinically isolated strains, Gram-negative, agar dilution, read-out: MIC90 Proteus mirabilis.
Text: as §1, §2, §3, §4

In series [3] the test system is methicillin-sensitive staphylococcus aureus (MSSA). Described as above. It counts as cell-based. The conditions noted are these: clinically isolated strains, Gram-positive, agar dilution, read-out: MIC90 S. aureus MSSA.
Text: as §1, §2, §3, §4

Series [4] has as its system methicillin-sensitive staphylococcus epidermidis (MSSE). The description is as above. The format is cell-based. Conditions: clinically isolated strains, Gram-positive, agar dilution, read-out: MIC90 S. epidermidis MSSE.
Text: as §1, §2, §3, §4

Series [5] concerns penicillin-sensitive streptococcus pneumoniae (PSSP). The description is as above. The format is cell-based. Conditions: clinically isolated strains, Gram-positive, read-out: MIC90 S. pneumoniae PSSP.
Text: as §1, §2, §3, §4

The subject of the next series is Hemophilus influenza. Described as above. The format is cell-based. The conditions noted are these: read-out: MIC90 Hemophilus influenza.
Text: as §1, §2, §3, §4

For a further series, the system named is Serratia marcescens. Described as above. It counts as cell-based. The conditions noted are these: clinically isolated strains, Gram-negative, agar dilution, read-out: MIC90 Serratia marcescens.
Text: as §1, §2, §3, §4

Another series relates to Enterobacter cloacae. Described as above. The format is cell-based. The conditions noted are these: clinically isolated strains, Gram-negative, agar dilution, read-out: MIC90 Enterobacter cloacae.
Text: as §1, §2, §3, §4

For a further series, the system named is Escherichia coli. Described as above. Conditions: clinically isolated strains, Gram-negative, read-out: MIC90 E. coli. It counts as cell-based.
Text: as §1, §2, §3, §4

For series [6], the system named is Klebsiella pneumonia (producing ESBL). Described as above. The format is cell-based. The conditions noted are these: Klebsiella pneumoniae; clinically isolated strains (producing ESBL), Gram-negative, agar dilution; read-out: MIC90 Klebsiella pneumonia.
Text: as §1, §2, §3, §4

Series [7] deals with methicillin-resistant staphylococcus epidermidis (MRSE). Described as above. Conditions: clinically isolated strains, Gram-positive, read-out: MIC90 S. epidermidis MRSE. It counts as cell-based.
Text: as §1, §2, §3, §4

In another series the test system is Citrobacter freundii. The series is described as above. The format is cell-based. Conditions: clinically isolated strains, Gram-negative.
Text: as §1, §2, §3, §4

In another series the test system is streptococcus pyogenes. The series is described as above. The format is cell-based. The conditions noted are these: clinically isolated strains, Gram-positive, read-out: MIC90 S. pyogenes.
Text: as §1, §2, §3, §4

The test system of the next series is Pseudomonas aeruginosa. The series is described as above. The format is cell-based. The conditions noted are these: clinically isolated strains, Gram-negative.
Text: as §1, §2, §3, §4

Series [8] is described as follows: Pharmacokinetic study of the compounds in SD rat (intravenous injection). The format is in vivo, SD male rats. Conditions: male, SD, in vivo, iv, 10 mg/kg. Here is the method:
Test drugs: the compound 1, 6, 8 and 9 prepared in the examples
Control drugs: Meropenem (Meropenem for injection), commercially available; Doripenem (Doripenem for Injection).
Internal standard substance: Warfarin, a white powder, purity 99%, batch number: 0072-8501, provided by Shanghai Institute for Drug Control.
Drug formulation: the test drugs were formulated before use by being dissolved in physiological saline to make a final concentration of 5 mg/mL for intravenous injection.
Test animal: SD male rats, weight: 200˜250 g, purchased from SHANGHAI SLAC LABORATORY ANIMAL CO. LTD.
Drug administration: The SD male rats were randomly divided into five groups with 3 in each group, and given the drugs by intravenous injection at a dose of 10 mg/kg. The animals were weighed before administration.
Collection of Samples: Zero time was marked before administration; 0.5 mL of blood was respectively sampled from orbit venous plexus at 5 min, 15 min, 30 min, 45 min, 1 h, 2 h, 4 h, 6 h, 8 h, 24 h after administration into heparinized centrifuge tubes. The samples were centrifuged for 6 minutes at 8000 rpm and the supernatant plasma was separated. The plasma was frozen at −20° C. for LC-MS/MS analysis.
Chromatographic conditions: column: Gemini C6-Phenyl (50 mm×4.6 mm, 5 μm); mobile phase: 0.1% of formic acid-water-acetonitrile (5:35:60, v/v/v); flow rate: 1 mL/min; column temperature: 35-40° C.; injection volume: 5 μL; split ratio: 1/5.
Mass spectrometer conditions: scanning mode: cation multiple reactions monitoring (MRM); ion source: electrospray ionization (ESI); Nebulize gas: 8 L/min; Curtain gas: 8 L/min; Collision gas: 4 L/min; Ionspray voltage: 4500 v; Temperature: 400° C./500° C.
Preparation of the Standard Curve and Quality-Control Sample: a Suitable Amount of the test drug was weighed precisely and then formulated into a stock solution (2.6 mg/mL) with ultrapure water. The stock solution was diluted with methanol to obtain a series of working solutions in a concentration of 25000, 5000, 2500, 500, 250 and 50 ng/mL, respectively. 100 μL of plasma samples were separately added into 20 μL of said working solutions to obtain the calibration solutions in a concentration of 5000, 1000, 500, 100, 50 and 10 ng/mL. By the same method, the quality-controlled sample solutions in a concentration of 4000, 800 and 20 ng/mL can be prepared. A standard curve was obtained by chromatographic analysis of the samples.
Sample preparation: 20 μL of acetonitrile and 200 μL (200 ng/mL) of Warfarin in acetonitrile were added into 100 μL of plasma sample, then spun for 1 minute and centrifuged for 5 minutes at 15000 rpm. 100 μL of the supernatant was taken, where 3 μL aliquot of the supernatant was used for the LC/MS/MS analysis.
Dosing concentration: The accuracy of the drug concentration in dosing solution for intravenous injection was 103.2%, determined by analysis of the formulated drugs using HPLC and comparison with the standards.
Data analysis: The drug concentration in plasma would be considered as zero if under the detection limit (10 ng/mL). The pharmacokinetics parameters were calculated by the non-compartment model using Winnonlin Professional 5.2 pharmacokinetics software.
Pharmacokinetics: The pharmacokinetics parameters and drug concentration-time curve were obtained by measuring the plasma drug concentration at different time points.

For series [9] the following is noted: cited from earlier work.

For `C[C@@H](O)[C@H]1C(=O)N2C(C(=O)O)=C(S[C@@H]3CN[C@H](CNS(N)(=O)=O)C3)[C@H](C)[C@H]12` [doripenem, Doripenem, reference compound], the MIC90 is 1 µg/mL (≈ 2.38 µM) in series [1]; 16 µg/mL (≈ 38 µM) in [2]; 0.063 µg/mL (≈ 0.15 µM) in the series with Morganella morganii; 0.5 µg/mL (≈ 1.19 µM) with Proteus mirabilis; 0.125 µg/mL (≈ 0.297 µM) in [3]; 0.125 µg/mL (≈ 0.297 µM) in series [4]. For the same molecule, the MIC90 in series [5] was found to be 0.016 µg/mL (≈ 0.038 µM); in the series with Hemophilus influenza, 0.5 µg/mL (≈ 1.19 µM); in the series on Serratia marcescens, 0.25 µg/mL (≈ 0.595 µM); in the series with Enterobacter cloacae, 0.025 µg/mL (≈ 0.0595 µM); in the series on Escherichia coli, 0.063 µg/mL (≈ 0.15 µM); in series [6] it was 0.125 µg/mL (≈ 0.297 µM). Further, the MIC90 in series [7] is 16 µg/mL (≈ 38 µM); against Citrobacter freundii, 0.063 µg/mL (≈ 0.15 µM); in the series on streptococcus pyogenes, 0.008 µg/mL (≈ 0.019 µM); in the series on Pseudomonas aeruginosa it was 8 µg/mL (≈ 19 µM). In series [8], the half-life – broadly, how long it takes for the measured level to halve – is 6.6 ± 0.6 min. Besides, the “half-lives in human body” value in series [9] is reported as “about 1 h”.
